Paper PMC4268243 (Nuclear medicine and biology, 2014)

Assays:
U87 tumor xenograft = assay: Biodistribution in U87 tumor-bearing SCID mice; assay type: in vivo; conditions: listed as (S)-[^18F]FAMP 1
U87 glioblastoma cells = assay: Amino acid uptake and inhibition in U87 cells; assay type: cell-based, human; conditions: U87, 30 minutes incubation
[1] = test system: A549 lung adenocarcinoma cells; assay: Amino acid uptake and inhibition in A549 cells; assay type: cell-based, human; conditions: A549, 30 minutes incubation
[2] = test system: MDA MB468 tumor xenograft; assay: Biodistribution in MDA MB468 tumor-bearing SCID mice; assay type: in vivo
[3] = test system: SCID mice xenograft tumor models; assay type: in vivo; conditions: in most cases, over tumors and time points
SKOV3 tumor xenograft = assay: Biodistribution in SKOV3 tumor-bearing SCID mice; assay type: in vivo; conditions: listed as (S)-[^18F]FAMP 1
[4] = test system: rat orthotopic brain tumor model; conditions: rat orthotopic brain tumor model, 60 min; cited from earlier work
[5] = test system: MDA MB468 estrogen-independent breast carcinoma cells; assay: Amino acid uptake and inhibition in MDA MB468 cells; assay type: cell-based, human; conditions: for Cell uptake: MDA MB468, 30 minutes incubation
[6] = 15 min post injection, listed as (S)-[^18F]FAMP 1
[7] = 30 min post injection, listed as (S)-[^18F]FAMP 1
[8] = 60 min post injection, listed as (S)-[^18F]FAMP 1
[9] = 120 min post injection, listed as (S)-[^18F]FAMP 1

## CC(N)(C[18F])C(=O)O [(S)-[^18F]1] [2-amino-3-[^18F]fluoro-2-methylpropanoic acid]
U87 tumor xenograft; 15 min post injection
  uptake in blood: 3.5±0.4 %ID/g
  uptake in bone: 2.4±0.7 %ID/g
  uptake in brain: 0.5±0.1 %ID/g
  uptake in heart: 3.1±0.4 %ID/g
  uptake in kidney: 37±4.9 %ID/g
  uptake in liver: 6.6±2.0 %ID/g
  uptake in lung: 4.6±0.6 %ID/g
  uptake in muscle: 3.3±0.7 %ID/g
  uptake in pancreas: 48±11 %ID/g
  uptake in spleen: 11±2.7 %ID/g
  uptake in tumor: 6.4±1.3 %ID/g
U87 tumor xenograft; 30 min post injection
  uptake in blood: 3.7±0.7 %ID/g
  uptake in bone: 2.1±0.5 %ID/g
  uptake in brain: 0.6±0.1 %ID/g
  uptake in heart: 3.1±0.4 %ID/g
  uptake in kidney: 28±5.2 %ID/g
  uptake in liver: 6.0±1.0 %ID/g
  uptake in lung: 3.6±0.5 %ID/g
  uptake in muscle: 3.3±0.3 %ID/g
  uptake in pancreas: 50±8.7 %ID/g
  uptake in spleen: 10±1.0 %ID/g
  uptake in tumor: 6.8±0.8 %ID/g
U87 tumor xenograft; 60 min post injection
  uptake in blood: 2.1±0.4 %ID/g
  uptake in bone: 2.0±0.1 %ID/g
  uptake in brain: 0.6±0.1 %ID/g
  uptake in heart: 2.8±0.7 %ID/g
  uptake in kidney: 15±3.3 %ID/g
  uptake in liver: 4.4±0.6 %ID/g
  uptake in lung: 2.6±0.8 %ID/g
  uptake in muscle: 2.3±0.3 %ID/g
  uptake in pancreas: 32±11 %ID/g
  uptake in spleen: 6.1±1.1 %ID/g
  uptake in tumor: 4.4±0.8 %ID/g
U87 tumor xenograft; 120 min post injection
  uptake in blood: 1.2±0.5 %ID/g
  uptake in bone: 1.0±0.3 %ID/g
  uptake in brain: 0.7±0.2 %ID/g
  uptake in heart: 2.1±0.3 %ID/g
  uptake in kidney: 7.3±1.4 %ID/g
  uptake in liver: 4.1±1.3 %ID/g
  uptake in lung: 1.5±0.4 %ID/g
  uptake in muscle: 1.3±0.3 %ID/g
  uptake in pancreas: 18±6.4 %ID/g
  uptake in spleen: 3.4±1.1 %ID/g
  uptake in tumor: 2.8±0.4 %ID/g
U87 glioblastoma cells; 10 mM BCH
  Cell uptake: 0.8±0.1 % ID/5×10^5 cells
U87 glioblastoma cells; 10 mM MeAIB
  Cell uptake: 1.0±0.04 % ID/5×10^5 cells
U87 glioblastoma cells; Control (no inhibitor)
  Cell uptake: 1.5±0.1 % ID/5×10^5 cells
[1]; 10 mM BCH
  Cell uptake: 1.5±0.1 % ID/5×10^5 cells
[1]; 10 mM MeAIB
  Cell uptake: 3.9±0.6 % ID/5×10^5 cells
[1]; Control (no inhibitor)
  Cell uptake: 4.8±0.7 % ID/5×10^5 cells
[2]; [6]
  uptake in blood: 4.2±0.3 %ID/g
  uptake in bone: 2.5±0.3 %ID/g
  uptake in brain: 0.6±0.1 %ID/g
  uptake in heart: 3.4±0.3 %ID/g
  uptake in kidney: 39±3.3 %ID/g
  uptake in liver: 4.8±0.9 %ID/g
  uptake in lung: 4.5±1.3 %ID/g
  uptake in muscle: 3.9±0.7 %ID/g
  uptake in pancreas: 51±10 %ID/g
  uptake in spleen: 14±2.8 %ID/g
  uptake in tumor: 5.8±0.7 %ID/g
[2]; [7]
  uptake in blood: 3.6±0.4 %ID/g
  uptake in bone: 2.4±0.6 %ID/g
  uptake in brain: 0.8±0.2 %ID/g
  uptake in heart: 3.2±0.3 %ID/g
  uptake in kidney: 29±6.1 %ID/g
  uptake in liver: 4.7±0.8 %ID/g
  uptake in lung: 4.3±1.9 %ID/g
  uptake in muscle: 3.4±0.4 %ID/g
  uptake in pancreas: 56±7.6 %ID/g
  uptake in spleen: 12±4.2 %ID/g
  uptake in tumor: 6.1±1.4 %ID/g
[2]; 60 min post injection
  uptake in tumor: 4.8±1.2 %ID/g
[2]; [8]
  uptake in blood: 2.9±1.0 %ID/g
  uptake in bone: 2.2±0.6 %ID/g
  uptake in brain: 0.7±0.1 %ID/g
  uptake in heart: 2.9±0.5 %ID/g
  uptake in kidney: 20±2.7 %ID/g
  uptake in liver: 4.3±0.6 %ID/g
  uptake in lung: 2.6±0.6 %ID/g
  uptake in muscle: 2.7±0.6 %ID/g
  uptake in pancreas: 46±9.5 %ID/g
  uptake in spleen: 7.1±0.9 %ID/g
[2]; [9]
  uptake in blood: 1.5±0.1 %ID/g
  uptake in bone: 1.0±0.6 %ID/g
  uptake in brain: 0.8±0.1 %ID/g
  uptake in heart: 2.0±0.2 %ID/g
  uptake in kidney: 11±1.4 %ID/g
  uptake in liver: 2.6±0.2 %ID/g
  uptake in lung: 1.6±0.4 %ID/g
  uptake in muscle: 1.3±0.5 %ID/g
  uptake in pancreas: 23±6.8 %ID/g
  uptake in spleen: 5.6±2.2 %ID/g
  uptake in tumor: 5.0±0.4 %ID/g
[3]
  ratio of tumor to muscle: above 2
SKOV3 tumor xenograft; 15 min post injection
  uptake in blood: 3.5±0.8 %ID/g
  uptake in bone: 2.2±0.7 %ID/g
  uptake in brain: 0.4±0.1 %ID/g
  uptake in heart: 2.8±0.8 %ID/g
  uptake in kidney: 31±6.8 %ID/g
  uptake in liver: 3.6±1.0 %ID/g
  uptake in lung: 4.8±1.3 %ID/g
  uptake in muscle: 2.8±0.9 %ID/g
  uptake in pancreas: 44±15 %ID/g
  uptake in spleen: 9.8±4.3 %ID/g
  uptake in tumor: 6.2±4.1 %ID/g
SKOV3 tumor xenograft; 30 min post injection
  uptake in blood: 3.1±0.7 %ID/g
  uptake in bone: 2.2±0.4 %ID/g
  uptake in brain: 0.5±0.1 %ID/g
  uptake in heart: 2.8±0.5 %ID/g
  uptake in kidney: 22±4.9 %ID/g
  uptake in liver: 3.9±0.6 %ID/g
  uptake in lung: 4.4±0.7 %ID/g
  uptake in muscle: 2.8±0.5 %ID/g
  uptake in pancreas: 40±13 %ID/g
  uptake in spleen: 8.4±2.1 %ID/g
  uptake in tumor: 7.3±3.0 %ID/g
SKOV3 tumor xenograft; 60 min post injection
  uptake in blood: 2.1±0.6 %ID/g
  uptake in bone: 1.7±0.6 %ID/g
  uptake in brain: 0.6±0.2 %ID/g
  uptake in heart: 2.6±0.7 %ID/g
  uptake in kidney: 15±4.8 %ID/g
  uptake in liver: 3.6±1.1 %ID/g
  uptake in lung: 3.2±1.1 %ID/g
  uptake in muscle: 2.2±0.7 %ID/g
  uptake in pancreas: 36±8.6 %ID/g
  uptake in spleen: 5.5±1.2 %ID/g
  uptake in tumor: 6.2±3.1 %ID/g
SKOV3 tumor xenograft; 120 min post injection
  uptake in bone: 1.6±1.1 %ID/g
  uptake in brain: 0.7±0.3 %ID/g
  uptake in heart: 2.6±1.4 %ID/g
  uptake in kidney: 11±5.0 %ID/g
  uptake in liver: 3.2±0.7 %ID/g
  uptake in lung: 2.3±0.8 %ID/g
  uptake in muscle: 1.7±0.9 %ID/g
  uptake in pancreas: 22±3.6 %ID/g
  uptake in spleen: 4.6±2.3 %ID/g
  uptake in tumor: 5.1±1.6 %ID/g
[4]
  brain uptake: 0.06±0.01 %ID/g
[5]; 10 mM BCH
  Cell uptake: 2.2±0.1 % ID/5×10^5 cells
[5]; 10 mM MeAIB
  Cell uptake: 3.5±0.2 % ID/5×10^5 cells
[5]; Control (no inhibitor)
  Cell uptake: 3.4±0.3 % ID/5×10^5 cells
[5]; MDA MB468 cells, 10 mM MeAIB
  inhibition of uptake by MeAIB: no significant MeAIB inhibition
